From patent US8344181B2, “N-2 adamantanyl-2-phenoxy-acetamide derivatives as 11-beta hydroxysteroid dehydrogenase inhibitors” (Janssen Pharmaceutica N.V., priority 2004, dated 2013)

Experiments:
11β-HSD1 = molecular target: T1, 11β-HSD1 (Mus musculus, UniProt P50172); assay: Cellular assay of 11β-HSD1 activity in differentiated 3T3-L1 cells; type: cell-based; conditions: 4 hour pre-incubation, 10^-5M to 10^-10M, read-out: HSD1 cellular 3T3-L1 Score
T1 construct: endogenous in cells; host or cells: 3T3-L1 (ATCC-CL-173), differentiated into adipocytes
T1 sequence (P50172 whole entry): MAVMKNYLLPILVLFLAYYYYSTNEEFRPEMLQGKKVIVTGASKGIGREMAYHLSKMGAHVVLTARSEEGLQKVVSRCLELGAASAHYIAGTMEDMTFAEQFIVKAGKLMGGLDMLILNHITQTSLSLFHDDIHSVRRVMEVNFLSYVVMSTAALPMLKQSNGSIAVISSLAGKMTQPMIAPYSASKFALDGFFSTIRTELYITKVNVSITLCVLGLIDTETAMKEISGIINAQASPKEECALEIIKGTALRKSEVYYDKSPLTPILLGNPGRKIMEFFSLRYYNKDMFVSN
Protocol: The effects on 11β-HSD1 activity was measured in differentiated 3T3-L1 cells and rat hepatocytes.
Mouse fibroblast 3T3-L1 cells (ATCC-CL-173) were seeded at a density of 16500 cells/ml in 12 well plates and grown for 7 days in DMEM medium (supplemented with 10% heat inactivated foetal calf serum, 2 mM glutamine and 25 mg gentamycin) at 37° C. in a humidified 5% CO2 atmosphere. Medium was refreshed twice a week. Fibroblasts were differentiated into adipocytes at 37° C. in a 5% CO2 humidified atmosphere in growth medium containing 2 μg/ml insulin, 55 μg/ml IBMX and 39.2 μg/ml dexamethasone.
Primary hepatocytes from male rats were seeded on normal Falcon 12 well plates at a density of 250000 cells/well and incubated for 16 hours at 37° C. in a 5% CO2 humidified atmosphere in DMEM-HAM's F12 medium containing 5% Nu-serum, 100 U/ml penicillin, 100 μg/ml streptomycin, 0.25 μg/ml amphotericin B, 50 μg/ml gentamycin sulfate, 5 μg/ml insulin and 392 ng/ml dexamethasone. Following a 4 hour pre-incubation with test compound, 0.5 μCi ^3H-cortisone or dehydrocorticosterone, was added to the 3T3-L1 cultures. One hour later, the medium was extracted on Extrelut^3-columns with 15 ml diethyl ether and the extract was analysed by HPLC as described above. The effects of JNJ-compounds on rat hepatocyte HSD1 activity was measured after an incubation period of 90 minutes with 0.5 μCi^3H-dehydrocorticosterone. Corticosterone formation was analysed by HPLC.
(§1) As for the enzymatic assays, the compounds to be tested were taken from a stock solution and tested at a final concentration ranging from 10^−5M to 10^−10M. From the thus obtained dose response curves, the pIC50 value was calculated and scored as follows; Score 1=pIC50 value<5, Score 2=pIC50 value in the range of 5 to 6, Score 3=pIC50 value>6. (in this table NT stands for Not Tested).

11β-HSD2 = molecular target: T2, 11β-HSD2 (Homo sapiens, UniProt P80365); assay: Cellular assay of 11β-HSD2 activity in HepG2 cells; type: cell-based; conditions: 4 hour pre-incubation, 10^-5M to 10^-10M, read-out: HSD2 cellular HepG2 Score
T2 construct: endogenous in cells; host or cells: HepG2 (ATCC HB-8065)
T2 sequence (P80365 1-405): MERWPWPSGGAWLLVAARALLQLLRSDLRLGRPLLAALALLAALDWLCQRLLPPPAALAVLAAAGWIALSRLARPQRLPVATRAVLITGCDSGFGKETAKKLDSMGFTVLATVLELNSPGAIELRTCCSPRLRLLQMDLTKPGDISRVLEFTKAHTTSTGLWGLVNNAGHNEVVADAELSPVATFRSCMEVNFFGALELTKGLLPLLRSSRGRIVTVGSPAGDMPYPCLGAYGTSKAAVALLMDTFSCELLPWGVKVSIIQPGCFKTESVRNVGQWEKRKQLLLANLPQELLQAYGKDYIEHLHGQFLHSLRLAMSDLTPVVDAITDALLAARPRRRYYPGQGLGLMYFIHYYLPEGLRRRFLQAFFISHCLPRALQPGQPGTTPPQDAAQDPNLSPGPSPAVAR
Protocol: The effects on 11β-HSD2 activity was studied in HepG2 and LCC-PK1-cells HepG2-cells (ATCC HB-8065) were seeded in 12 well plates at a density of 100,000 cells/ml and grown at 37° C. in a humidified 5% CO2 atmosphere in MEM-Rega-3 medium supplemented with 10% heat inactivated foetal calf serum, 2 mM L-glutamine and sodium bicarbonate). Medium was refreshed twice a week.
Following a 4 hour pre-incubation with test compound, 0.5 μCi ^3H-cortisol or corticosterone, was added to the cultures. One hour later, the medium was extracted on Extrelut^3-columns with 15 ml diethyl ether and the extract was analysed by HPLC as described above.
as §1

## CCOC(=O)N[C@@]12CC3C[C@H](C1)[C@H](NC(=O)C(C)(C)Oc1ccc(Cl)cc1C)[C@@H](C3)C2 [Compound 45]
11β-HSD1
  IC50: < 1000 nM
11β-HSD2
  IC50: 1 to 10 µM

## CC(=O)N[C@@]12CC3C[C@H](C1)[C@H](NC(=O)C(C)(C)Nc1ccc(Br)cc1C)[C@@H](C3)C2 [Compound 74]
11β-HSD1
  IC50: < 1000 nM
11β-HSD2
  IC50: 1 to 10 µM

## CC(C)(Oc1cccc(Br)c1)C(=O)N[C@H]1[C@@H]2CC3C[C@H]1C[C@](N)(C3)C2 [Compound 93]
11β-HSD1
  IC50: < 1000 nM
11β-HSD2
  IC50: > 10 µM

## Cc1ccc(OC(C)(C)C(=O)NC2C3CC4CC2CC(c2ccccc2)(C4)C3)cc1 (centres unmarked) [Compound 49]
11β-HSD1
  IC50: 1000 to 10000 nM
11β-HSD2
  IC50: > 10 µM

## O=C(N[C@H]1[C@@H]2CC3C[C@H]1C[C@](O)(C3)C2)C1COc2ccccc2O1 (some centres unmarked) [Compound 8]
11β-HSD1
  IC50: < 1000 nM
11β-HSD2
  IC50: 1 to 10 µM

## CC(C)(Oc1cccc(Cl)c1)C(=O)N[C@H]1[C@@H]2CC3C[C@H]1C[C@](N)(C3)C2 [Compound 85]
11β-HSD1
  IC50: < 1000 nM
11β-HSD2
  IC50: > 10 µM

## COc1ccc(NC(C)(C)C(=O)N[C@H]2[C@@H]3CC4C[C@H]2C[C@](O)(C4)C3)cc1 [Compound 58]
11β-HSD1
  IC50: < 1000 nM
11β-HSD2
  IC50: > 10 µM

## CC(C)(Oc1ccccc1)C(=O)N[C@H]1[C@@H]2CC3C[C@H]1C[C@](O)(C3)C2 [Compound 69]
11β-HSD1
  IC50: < 1000 nM
11β-HSD2
  IC50: 1 to 10 µM

## CC(C)(Oc1ccc(Cl)cc1)C(=O)N[C@H]1[C@@H]2CC3C[C@H]1C[C@](O)(C3)C2 [Compound 67]
11β-HSD1
  IC50: < 1000 nM
11β-HSD2
  IC50: 1 to 10 µM

## CC(C)(Nc1cccc(C(F)(F)F)c1)C(=O)N[C@H]1[C@@H]2CC3C[C@H]1C[C@](NC(=O)CCl)(C3)C2 [Compound 80]
11β-HSD1
  IC50: < 1000 nM
11β-HSD2
  IC50: 1 to 10 µM
